14 compounds from patent publication US20240409585A1, “MACROCYCLIC IMMUNOMODULATORS” (priority 2021, published 2024) can be followed below.

Structures are written as SMILES. Bridge positions count the residues as written; N and C are the ends. Square brackets hold non-standard residues; d marks the D form. Peptide text beside a SMILES is read from it. * marks the point of attachment. ξ: configuration not given here. dPhe(4-NO2) = N[C@H](Cc1ccc([N+](=O)[O-])cc1)C(=O)O; Phe(4-COOH) = N[C@@H](Cc1ccc(C(=O)O)cc1)C(=O)O; Bip = N[C@@H](Cc1ccc(-c2ccccc2)cc1)C(=O)O; Phe(3-Me) = Cc1cccc(C[C@H](N)C(=O)O)c1; 1Nal = N[C@@H](Cc1cccc2ccccc12)C(=O)O; Val(3-OH) = CC(C)(O)[C@H](N)C(=O)O; hArg = N=C(N)NCCCC[C@H](N)C(=O)O; 4Pal = N[C@@H](Cc1ccncc1)C(=O)O; Cha = N[C@@H](CC1CCCCC1)C(=O)O; Cit = NC(=O)NCCC[C@H](N)C(=O)O; Ile(3ξ) = CCC(C)[C@H](N)C(=O)O; AllylGly = C=CC[C@H](N)C(=O)O; Thr(3ξ) = CC(O)[C@H](N)C(=O)O; dOrn = NCCC[C@@H](N)C(=O)O; Carboxymethyl = O=C(O)C*; NMeA = CN[C@@H](C)C(=O)O; Pra = C#CC[C@H](N)C(=O)O; Dab = NCC[C@H](N)C(=O)O; Dap = NC[C@H](N)C(=O)O; ξC = NC(CS)C(=O)O

T1 sequence (Q15116 25-288): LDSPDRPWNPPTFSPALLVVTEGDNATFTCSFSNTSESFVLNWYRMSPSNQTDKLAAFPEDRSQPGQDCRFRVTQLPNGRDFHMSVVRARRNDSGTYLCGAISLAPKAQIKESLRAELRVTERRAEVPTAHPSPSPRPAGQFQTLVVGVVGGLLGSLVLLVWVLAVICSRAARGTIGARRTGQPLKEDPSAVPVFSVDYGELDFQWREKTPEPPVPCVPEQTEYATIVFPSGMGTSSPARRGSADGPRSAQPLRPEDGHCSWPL

The test concerns the target T1, PE-labeled human PD-L1-Ig binding to Jurkat cell line over-expressing human PD-1 (Jurkat-PD-1) (Homo sapiens, UniProt Q15116).
T1 construct: expressed in transfected cells; host or cells: Jurkat
Nature of the test: Jurkat-PD-1 Cell Binding High-Content Screening Assay (CBA): Method 1. The settings on record: Jurkat-hPD-1 cells, PE-labeled PD-L1-Ig 20 nM final; read-out: Jurkat HPDL1 PD1 IC50 (uM) (Method 1).
For the compound `C=CC[C@@H]1NC(=O)[C@H](Cc2cccc(C)c2)NC(=O)[C@H](CC(=O)O)NC(=O)[C@H](Cc2ccncc2)NC(=O)[C@H](Cc2ccc(OCC(=O)O)cc2)NC(=O)CSCC(C(=O)NCC(N)=O)NC(=O)[C@H](CO)NC(=O)[C@H](C(C)C)NC(=O)[C@H](CC(C)C)NC(=O)[C@H](CC(N)=O)NC(=O)[C@@H](CC(C)C)NC(=O)[C@H](C)N(C)C(=O)[C@H](CC=C)NC(=O)[C@H](Cc2ccc(-c3ccccc3)cc2)NC1=O` (stereo partly drawn) [Compound 1883] ({CH2CO}-Y(Carboxymethyl)[4Pal]D[Phe(3-Me)][AllylGly][Bip][AllylGly][NMeA][dL]NLVS[ξC]G-NH2; thioether N-14), the half-maximal inhibitory concentration (IC50) is 0.06 µM.
`CC(C)C[C@@H]1NC(=O)[C@H](CCCNC(=N)N)NC(=O)[C@@H](Cc2ccc([N+](=O)[O-])cc2)NC(=O)[C@H](C)N(C)C(=O)[C@H](CCCNC(=N)N)NC(=O)[C@H](Cc2ccc(-c3ccccc3)cc2)NC(=O)[C@H](C(C)C)NC(=O)[C@H](Cc2c[nH]c3ccccc23)NC(=O)[C@H](CC(=O)O)NC(=O)[C@H](Cc2ccc(O)cc2)NC(=O)[C@H](Cc2ccccc2)NC(=O)CSC[C@@H](C(=O)N[C@@H](C)C(N)=O)NC(=O)[C@H]([C@@H](C)O)NC(=O)[C@H](C(C)C)NC1=O` [Compound 1102] ({CH2CO}-FYDWV[Bip]R[NMeA][dPhe(4-NO2)]RLVTCA-NH2; thioether N-14): the IC50 stood at 0.3 µM.
Take `Cc1cccc(C[C@@H]2NC(=O)[C@H](CC(=O)O)NC(=O)[C@H](Cc3ccc(C(=O)O)cc3)NC(=O)[C@H](CN)NC(=O)CSC[C@@H](C(=O)N[C@@H](C)C(N)=O)NC(=O)[C@H]([C@@H](C)O)NC(=O)[C@H](C(C)C)NC(=O)[C@H](CC(C)C)NC(=O)[C@H](CCN)NC(=O)[C@@H](CC(C)C)NC(=O)[C@H](C)N(C)C(=O)[C@H](C(C)C)NC(=O)[C@H](Cc3ccc(-c4ccccc4)cc3)NC(=O)[C@H](C(C)C)NC2=O)c1` [Compound 1415] ({CH2CO}-[Dap][Phe(4-COOH)]D[Phe(3-Me)]V[Bip]V[NMeA][dL][Dab]LVTCA-NH2; thioether N-14): the IC50 is 0.04 µM.
In the case of `C#CC[C@H](NC(=O)[C@@H](C)NC(=O)[C@@H]1CSCC(=O)N[C@@H](Cc2c[nH]cn2)C(=O)N[C@@H](Cc2ccc(OCC(=O)O)cc2)C(=O)N[C@@H](CC(=O)O)C(=O)N[C@@H](Cc2c[nH]c3ccccc23)C(=O)N[C@@H](C(C)C)C(=O)N[C@@H](Cc2ccc(-c3ccccc3)cc2)C(=O)N[C@@H](C(C)C)C(=O)N(C)[C@@H](C)C(=O)N[C@H](CC(C)C)C(=O)N[C@@H](CCN)C(=O)N[C@@H](CC2CCCCC2)C(=O)N[C@@H](C(C)(C)O)C(=O)N[C@@H](CO)C(=O)N1)C(N)=O` [Compound 1942] ({CH2CO}-HY(Carboxymethyl)DWV[Bip]V[NMeA][dL][Dab][Cha][Val(3-OH)]SC[dA][Pra]-NH2; thioether N-14), the 50% inhibitory concentration (IC50) came to 0.01 µM.
For `CC(C)C[C@@H]1NC(=O)[C@H](CCN)NC(=O)[C@@H](CC(C)C)NC(=O)[C@H](C)N(C)C(=O)[C@H](CCCNC(=N)N)NC(=O)[C@H](Cc2ccc(-c3ccccc3)cc2)NC(=O)[C@H](C(C)C)NC(=O)[C@H](Cc2c[nH]c3ccccc23)NC(=O)[C@H](CC(=O)O)NC(=O)[C@H](Cc2ccc(O)cc2)NC(=O)[C@H](CCCCNC(=N)N)NC(=O)CSC[C@@H](C(=O)N[C@@H](C)C(N)=O)NC(=O)[C@H]([C@@H](C)O)NC(=O)[C@H](C(C)C)NC1=O` [Compound 1344] ({CH2CO}-[hArg]YDWV[Bip]R[NMeA][dL][Dab]LVTCA-NH2; thioether N-14) the value was 0.07 µM; for `Cc1cccc(C[C@@H]2NC(=O)[C@H](CC(=O)O)NC(=O)[C@H](Cc3ccc(OCC(=O)O)cc3)NC(=O)[C@H](Cc3ccncc3)NC(=O)CSC[C@@H](C(=O)N[C@@H](CCN)C(N)=O)NC(=O)[C@H](CC(=O)O)NC(=O)[C@H](C(C)(C)O)NC(=O)[C@H](CC3CCCCC3)NC(=O)[C@H](CCN)NC(=O)[C@@H](CC(C)C)NC(=O)[C@H](C)N(C)C(=O)[C@H](Cc3ccc(OCC(=O)O)cc3)NC(=O)[C@H](Cc3ccc(-c4ccccc4)cc3)NC(=O)[C@H](Cc3ccc(OCC(=O)O)cc3)NC2=O)c1` [Compound 2190] ({CH2CO}-[4Pal]Y(Carboxymethyl)D[Phe(3-Me)]Y(Carboxymethyl)[Bip]Y(Carboxymethyl)[NMeA][dL][Dab][Cha][Val(3-OH)]DC[Dab]-NH2; thioether N-14), 0.03 µM; for `CC(C)C[C@@H]1NC(=O)[C@H](Cc2c[nH]c3ccccc23)NC(=O)[C@H](CC(=O)O)NC(=O)[C@H](Cc2cccc3ccccc23)NC(=O)[C@H](Cc2ccccc2)NC(=O)CSC[C@@H](C(=O)N[C@@H](C)C(N)=O)NC(=O)[C@H](CO)NC(=O)[C@H](C(C)C)NC(=O)[C@H](CC(C)C)NC(=O)[C@H](CC(N)=O)NC(=O)[C@@H](C)NC(=O)[C@H](C)N(C)C(=O)[C@H](C(C)C)NC(=O)[C@H](Cc2ccc(-c3ccccc3)cc2)NC1=O` [Compound 1805] ({CH2CO}-F[1Nal]DWL[Bip]V[NMeA][dA]NLVSCA-NH2; thioether N-14), 0.23 µM.
Regarding `CC(C)C[C@@H]1NC(=O)[C@H](CCN)NC(=O)[C@@H](CC(C)C)NC(=O)[C@H](C)N(C)C(=O)[C@H](CCCNC(=N)N)NC(=O)[C@H](Cc2ccc(-c3ccccc3)cc2)NC(=O)[C@H](C(C)C)NC(=O)[C@H](Cc2c[nH]c3ccccc23)NC(=O)[C@H](CC(=O)O)NC(=O)[C@H](Cc2ccc(O)cc2)NC(=O)[C@H](CCN)NC(=O)CSC[C@@H](C(=O)N[C@@H](C)C(N)=O)NC(=O)[C@H]([C@@H](C)O)NC(=O)[C@H](C(C)C)NC1=O` [Compound 1340] ({CH2CO}-[Dab]YDWV[Bip]R[NMeA][dL][Dab]LVTCA-NH2; thioether N-14), the IC50 is 0.02 µM.
With `Cc1cccc(C[C@@H]2NC(=O)[C@H](CC(=O)O)NC(=O)[C@H](Cc3ccncc3)NC(=O)[C@H](Cc3ccc(OCC(=O)O)cc3)NC(=O)CSC[C@@H](C(N)=O)NC(=O)[C@H](CO)NC(=O)[C@H](C(C)C)NC(=O)[C@H](CC(C)C)NC(=O)[C@H](CC(N)=O)NC(=O)[C@@H](CC(C)C)NC(=O)[C@H](C)N(C)C(=O)[C@H](C(C)C)NC(=O)[C@H](Cc3ccc(-c4ccccc4)cc3)NC(=O)[C@H](CC(C)C)NC2=O)c1` [Compound 1595] ({CH2CO}-Y(Carboxymethyl)[4Pal]D[Phe(3-Me)]L[Bip]V[NMeA][dL]NLVSC-NH2; thioether N-14) the figure was 0.01 µM; with `Cc1cccc(C[C@@H]2NC(=O)[C@H](CC(=O)O)NC(=O)[C@H](Cc3ccc(OCC(=O)O)cc3)NC(=O)[C@H](Cc3ccncc3)NC(=O)CSC[C@@H](C(N)=O)NC(=O)[C@H](CCC(N)=O)NC(=O)[C@H](C(C)C)NC(=O)[C@H](CC3CCCCC3)NC(=O)[C@H](CCN)NC(=O)[C@@H](CC(C)C)NC(=O)[C@H](C)N(C)C(=O)[C@H](Cc3ccc(OCC(=O)O)cc3)NC(=O)[C@H](Cc3ccc(-c4ccccc4)cc3)NC(=O)[C@H](Cc3ccc(OCC(=O)O)cc3)NC2=O)c1` [Compound 1659] ({CH2CO}-[4Pal]Y(Carboxymethyl)D[Phe(3-Me)]Y(Carboxymethyl)[Bip]Y(Carboxymethyl)[NMeA][dL][Dab][Cha]VQC-NH2; thioether N-14), 0.03 µM.
With `CC(C)C[C@@H]1NC(=O)[C@H](CCN)NC(=O)[C@@H](CC(C)C)NC(=O)[C@H](C)N(C)C(=O)[C@H](CC(N)=O)NC(=O)[C@H](Cc2ccc(-c3ccccc3)cc2)NC(=O)[C@H](C(C)C)NC(=O)[C@H](Cc2c[nH]c3ccccc23)NC(=O)[C@H](CC(=O)O)NC(=O)[C@H](Cc2ccc(O)cc2)NC(=O)[C@H](CC(N)=O)NC(=O)CSC[C@@H](C(=O)N[C@@H](C)C(N)=O)NC(=O)[C@H]([C@@H](C)O)NC(=O)[C@H](C(C)C)NC1=O` [Compound 1259] ({CH2CO}-NYDWV[Bip]N[NMeA][dL][Dab]LVTCA-NH2; thioether N-14) the figure was 0.11 µM; with `CC(=O)NCCCC[C@@H]1NC(=O)[C@H](C(C)C)NC(=O)[C@H](CC2CCCCC2)NC(=O)[C@H](CCN)NC(=O)[C@@H](CC(C)C)NC(=O)[C@H](C)N(C)C(=O)[C@H](CCC(N)=O)NC(=O)[C@H](Cc2ccc(-c3ccccc3)cc2)NC(=O)[C@H](C(C)C)NC(=O)[C@H](Cc2cccc(C)c2)NC(=O)[C@H](CC(=O)O)NC(=O)[C@H](Cc2ccc(OCC(=O)O)cc2)NC(=O)[C@H](Cc2ccc(OCC(=O)O)cc2)NC(=O)CSC[C@@H](C(=O)N[C@H](CCCN)C(N)=O)NC1=O` [Compound 2155] ({CH2CO}-Y(Carboxymethyl)Y(Carboxymethyl)D[Phe(3-Me)]V[Bip]Q[NMeA][dL][Dab][Cha]VK(Ac)C[dOrn]-NH2; thioether N-14), 0.01 µM; with `CCC(C)[C@@H]1NC(=O)[C@H](Cc2ccc(-c3ccccc3)cc2)NC(=O)[C@H](C(C)C)NC(=O)[C@H](Cc2c[nH]c3ccccc23)NC(=O)[C@H](CC(=O)O)NC(=O)[C@H](Cc2ccc(OCC(=O)O)cc2)NC(=O)[C@H](C(C)O)NC(=O)CSC[C@@H](C(=O)N[C@H](CC(N)=O)C(N)=O)NC(=O)[C@H](CO)NC(=O)[C@H](C(C)(C)O)NC(=O)[C@H](CC2CCCCC2)NC(=O)[C@H](CCN)NC(=O)[C@@H](CC(C)C)NC(=O)[C@H](C)N(C)C1=O` (stereo partly drawn) [Compound 2141] ({CH2CO}-[Thr(3ξ)]Y(Carboxymethyl)DWV[Bip][Ile(3ξ)][NMeA][dL][Dab][Cha][Val(3-OH)]SC[dN]-NH2; thioether N-14), 0.02 µM.
Regarding `CC(C)C[C@@H]1NC(=O)[C@H](CCN)NC(=O)[C@@H](CC(C)C)NC(=O)[C@H](C)N(C)C(=O)[C@H](CCCNC(N)=O)NC(=O)[C@H](Cc2ccc(-c3ccccc3)cc2)NC(=O)[C@H](C(C)C)NC(=O)[C@H](Cc2c[nH]c3ccccc23)NC(=O)[C@H](CC(=O)O)NC(=O)[C@H](Cc2ccc(OCC(=O)O)cc2)NC(=O)[C@H](Cc2ccc(OCC(=O)O)cc2)NC(=O)CSC[C@@H](C(=O)N[C@@H](C)C(N)=O)NC(=O)[C@H]([C@@H](C)O)NC(=O)[C@H](C(C)C)NC1=O` [Compound 1569] ({CH2CO}-Y(Carboxymethyl)Y(Carboxymethyl)DWV[Bip][Cit][NMeA][dL][Dab]LVTCA-NH2; thioether N-14), the IC50 worked out at 0.04 µM.
